Measured values as given in patent US7268128B2, “1,3,5-trisubstituted-5-phenyl and 5-pyridyl pyrazolopyrimidinone derivatives having PDE7 inhibiting action” (Ausbio Pharma Co., Ltd., priority 2001, dated 2007).

biological target: T1, PDE7 (type VII phosphodiesterase) (Homo sapiens, UniProt Q13946); assay: PDE7 inhibiting activity (3H-cAMP hydrolysis, active fraction from MOLT-4 cells); assay type: biochemical; details: PDE7 fraction from MOLT-4 cells, 0.064 μM cAMP, 10 μM rolipram present, 2 hours at 25° C.; read-out: IC50 values for phosphodiesterase inhibiting activities (PDE7)
T1 construct: endogenous in cells; host or cells: MOLT-4 (ATCC CRL-1582), soluble fraction, HiTrapQ anion-exchange fraction
T1 sequence (Q13946 whole entry): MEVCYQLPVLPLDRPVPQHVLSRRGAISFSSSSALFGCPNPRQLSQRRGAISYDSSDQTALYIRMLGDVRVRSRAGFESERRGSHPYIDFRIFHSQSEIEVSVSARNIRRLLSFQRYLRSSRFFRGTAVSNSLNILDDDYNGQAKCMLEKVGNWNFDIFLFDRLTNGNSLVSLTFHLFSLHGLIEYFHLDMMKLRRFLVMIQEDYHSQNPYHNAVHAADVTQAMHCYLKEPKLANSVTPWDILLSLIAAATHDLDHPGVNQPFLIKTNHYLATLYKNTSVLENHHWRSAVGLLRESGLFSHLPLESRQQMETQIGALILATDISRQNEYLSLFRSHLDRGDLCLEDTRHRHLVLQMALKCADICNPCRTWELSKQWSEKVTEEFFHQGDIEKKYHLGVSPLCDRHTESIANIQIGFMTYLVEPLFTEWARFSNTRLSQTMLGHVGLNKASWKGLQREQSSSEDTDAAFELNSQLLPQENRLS
How it was run: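 Read-out: supernatant radioactivity after twice-repeated QAE-Sephadex treatment of a 2 h, 25° C reaction (3H-cAMP at 0.064 μM cAMP, 10 μM rolipram, 5′-nucleotidase, 1 mM MgCl2, pH 7.5). Enzyme is an anion-exchange-purified fraction from MOLT-4 T cells. IC50 taken as half-maximal inhibition.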

Question: With COc1cc(S(=O)(=O)N(C)CCO)ccc1-c1nc2c(c(C3CCCCC3)nn2C)c(=O)[nH]1 [Example 156, 4-(3-Cyclohexyl-1-methyl-4-oxo-4,5-dihydro-1H-pyrazolo[3,4-d]pyrimidin-6-yl)-N-(2-hydroxyethyl)-3-methoxy-N-methylbenzenesulfonamide] as the compound, how does the IC50 read?
Answer: ≤ 1000 nM

Question: Which IC50 does the source give for COc1cc(S(=O)(=O)N(C)CCN(C)C)ccc1-c1nc2c(c(C3CCCCC3)nn2C)c(=O)[nH]1 [Example 158, 4-(3-Cyclohexyl-1-methyl-4-oxo-4,5-dihydro-1H-pyrazolo[3,4-d]pyrimidin-6-yl)-N-(2-(dimethylamino)ethyl)-3-methoxy-N-methylbenzenesulfonamide monomethanesulfonate] here?
Answer: ≤ 1000 nM

Question: COc1cc(S(=O)(=O)NCCCO)ccc1-c1nc2c(c(C3CCCCC3)nn2C)c(=O)[nH]1 [Example 159, 4-(3-Cyclohexyl-1-methyl-4-oxo-4,5-dihydro-1H-pyrazolo[3,4-d]pyrimidin-6-yl)-N-(3-hydroxypropyl)-3-methoxybenzenesulfonamide] was tested. Which IC50 did it give?
Answer: ≤ 1000 nM

Question: Which IC50 does the source give for COc1cc(S(=O)(=O)N2CCCNCC2)ccc1-c1nc2c(c(C3CCCCC3)nn2C)c(=O)[nH]1 [Example 161, 3-Cyclohexyl-6-[4-(1,4-diazepan-1-ylsulfonyl)-2-methoxyphenyl]-1-methyl-1,5-dihydro-4H-pyrazolo[3,4-d]pyrimidin-4-one monomethanesulfonate] here?
Answer: ≤ 1000 nM

Question: With COc1cc(S(=O)(=O)N2CCCN(C)CC2)ccc1-c1nc2c(c(C3CCCCC3)nn2C)c(=O)[nH]1 [Example 163, 3-Cyclohexyl-6-{2-methoxy-4-[(4-methyl-1,4-diazepan-1-yl)sulfonyl]phenyl}-1-methyl-1,5-dihydro-4H-pyrazolo[3,4-d]pyrimidin-4-one monomethanesulfonate] as the compound, how does the IC50 read?
Answer: ≤ 10 nM

Question: How did the IC50 turn out when COc1cc(S(=O)(=O)N2CCC(O)C2)ccc1-c1nc2c(c(C3CCCCC3)nn2C)c(=O)[nH]1 (centres unmarked) [Example 164, 3-Cyclohexyl-6-{4-[(3-hydroxy-1-pyrrolidinyl)sulfonyl]-2-methoxyphenyl}-1-methyl-1,5-dihydro-4H-pyrazolo[3,4-d]pyrimidin-4-one] was run?
Answer: ≤ 1000 nM

Question: Which IC50 does the source give for COc1cc(S(=O)(=O)N2CCSCC2)ccc1-c1nc2c(c(C3CCCCC3)nn2C)c(=O)[nH]1 [Example 165, 3-Cyclohexyl-6-[2-methoxy-4-(4-thiomorpholinylsulfonyl)phenyl]-1-methyl-1,5-dihydro-4H-pyrazolo[3,4-d]pyrimidin-4-one] here?
Answer: ≤ 1000 nM

Question: How did the IC50 turn out when CNC1CCN(S(=O)(=O)c2ccc(-c3nc4c(c(C5CCCCC5)nn4C)c(=O)[nH]3)c(OC)c2)CC1 [Example 169, 3-Cyclohexyl-6-(2-methoxy-4-{[4-(methylamino)-1-piperidinyl]sulfonyl}phenyl)-1-methyl-1,5-dihydro-4H-pyrazolo[3,4-d]pyrimidin-4-one monomethanesulfonate] was run?
Answer: ≤ 1000 nM

Question: Which IC50 does the source give for COc1cc(S(=O)(=O)N2CCC(N)C2)ccc1-c1nc2c(c(C3CCCCC3)nn2C)c(=O)[nH]1 (centres unmarked) [Example 172, 6-{4-[(3-Amino-1-pyrrolidinyl)sulfonyl]-2-methoxyphenyl}-3-cyclohexyl-1-methyl-1,5-dihydro-4H-pyrazolo[3,4-d]pyrimidin-4-one monomethanesulfonate] here?
Answer: ≤ 1000 nM

Question: For COc1cc(S(=O)(=O)N2CCC(N)CC2)ccc1-c1nc2c(c(C3CCCCC3)nn2C)c(=O)[nH]1 [Example 175, 6-{4-[(4-Amino-1-piperidinyl)sulfonyl]-2-methoxyphenyl}-3-cyclohexyl-1-methyl-1,5-dihydro-4H-pyrazolo[3,4-d]pyrimidin-4-one monomethanesulfonate], which IC50 is on record?
Answer: ≤ 1000 nM

Question: For COc1cc(N2CCSCC2)ccc1-c1nc2c(c(C3CCCCC3)nn2C)c(=O)[nH]1 [Example 176, 3-Cyclohexyl-6-[2-methoxy-4-(4-thiomorpholinyl)phenyl]-1-methyl-1,5-dihydro-4H-pyrazolo[3,4-d]pyrimidin-4-one], which IC50 is on record?
Answer: ≤ 1000 nM
